Data reported in patent US8361968B2 (Takeda Pharmaceutical Company Limited, priority 2002, dated 2013).
Numbered stars: 1 amine (or outer) side, 2 acyl side, 3 side chain; on linkers, the order of the positions; unused ones are H or OH. Square brackets hold non-standard residues; d marks the D form. Ends that are not written are not given here. Peptide text beside a SMILES is read from it. * marks the point of attachment. X12 = CNC(=N)NCCC[C@H](NC(=O)[C@H](CC(C)C)NCCN*)C(=O)N[C@@H](Cc1ccccc1)C(N)=O; Arg(Me) = CNC(=N)NCCC[C@H](N)C(=O)O; Tryptamide = c1ccc2c(CCN*)c[nH]c2c1; CO = O=C([*:1])[*:2]; azaGly = NNC(=O)O

Molecular target: hOT7T175 (Homo sapiens, UniProt Q969F8, L364H)
Sequence (Q969F8 whole entry L364H): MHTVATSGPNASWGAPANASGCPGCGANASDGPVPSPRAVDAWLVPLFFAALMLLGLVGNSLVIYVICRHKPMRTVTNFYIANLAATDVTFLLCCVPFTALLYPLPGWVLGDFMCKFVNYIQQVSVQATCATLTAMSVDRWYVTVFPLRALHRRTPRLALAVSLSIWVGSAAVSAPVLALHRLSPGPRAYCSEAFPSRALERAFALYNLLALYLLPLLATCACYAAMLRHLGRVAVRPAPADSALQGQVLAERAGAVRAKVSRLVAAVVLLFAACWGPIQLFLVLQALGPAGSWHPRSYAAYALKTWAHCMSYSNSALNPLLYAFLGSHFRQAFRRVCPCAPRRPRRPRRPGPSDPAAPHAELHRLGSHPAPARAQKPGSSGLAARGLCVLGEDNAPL
Experiment: Intracellular Ca ion level-increasing activity using FLIPR in hOT7T175/CHO
Type: cell-based
Parameters: expressed in transfected cells; host or cells: CHO/dhfr- cells, obtained from ATCC
Conditions: relative, Metastin (1-54) = 1
Description: Assay for Intracellular Ca Ion Level-Increasing Activity Using Flipr
In accordance with the method described in JPA 2000-312590, the intracellular Ca ion level-increasing activity was measured using FLIPR.
The stable expression cell line hOT7T175 was acquired by transduction of expression plasmid pAK-rOT175 for animal cells into CHO/dhff cells, using CellPhect Transfection Kit (Amersham Pharmacia Biotech, Inc.). First, 240 μL of Buffer A (attached to CellPhect Transfection Kit) was added to 9.6 μg of plasmid DNA dissolved in 240 μl of distilled water, followed by stirring. After settling the mixture for 10 minutes, 480 μL of Buffer B (attached to CellPhect Transfection Kit) was added to the mixture, which was vigorously stirred to form DNA-containing liposomes. Then, 4×10^5 CHO/dhff cells (obtained from ATCC) were inoculated on a 60 mm Petri dish. […] After culturing the cells at 37° C. for 6 hours in 5% carbon dioxide gas, the cells were washed twice with serum-free Ham's F-12 medium and 3 ml of 15% glycerol was added to the cells in the Petri dish to treat for 2 minutes. The cells were again washed twice with serum-free Ham's F-12 medium followed by incubation in Ham's F-12 medium supplemented with 10% fetal bovine serum at 37° C. for 15 hours in 5% carbon dioxide gas. The cells were dispersed by trypsin treatment and recovered from the Petri dish. The recovered cells were inoculated on a 6-well plate in 1.25×10^4 cells/well and incubation was initiated at 37° C. in Dulbecco's modified Eagle medium (DMEM) medium (Nissui Seiyaku Co., Ltd.) containing 10% dialyzed fetal bovine serum (JRH BIOSCIENCES, Inc.) under 5% carbon dioxide gas. […] The medium was exchanged on Days 1 and 2 to remove the cells died.
The intracellular Ca ion level-increasing activity of the synthetic peptide in hOT7T175/CHO was determined using FLIPR (Molecular Devices, Inc.).
hOT7T175/CHO was subcultured in DMEM supplemented with 10% dialyzed fetal bovine serum (hereinafter abbreviated as dFBS) and provided for the experiment (hereinafter abbreviated as 10% dFBS/DMEM). The hOT7T175/CHO was suspended in 10% dFBS-DMEM in 15×10^4 cells/ml. The suspension was inoculated on a 96-well plate for FLIPR (Black Plate Clear Bottom, Coster, Inc.) at 200 μL each (3.0×10^4 cells/200 μL/well), followed by incubation at 37° C. overnight in a 5% CO2 incubator (hereinafter simply referred to as the cell plate). Then, 21 ml of HANKS/HBSS (9.8 g of HANKS, 0.35 g of sodium hydrogencarbonate, 20 ml of 1M HEPES; after adjusting the pH to 7.4 with 1N sodium hydroxide, the mixture was sterilized by filtration), 210 μl of 250 mM Probenecid and […] of fetal bovine serum (FBS) were mixed (HANKS/HBSS-Probenecid-FBS).
Furthermore, 2 vials of Fluo3-AM (50 μug/vial) were dissolved in 21 μL of dimethylsulfoxide and 21 μL of 20% Pluronic acid. The resulting solution was added to and mixed with 10 ml of HANKS/HBSS-Probenecid-FBS described above. After the culture medium was removed, the mixture was dispensed onto the cell plate in 100 μL each/well, followed by incubation at 37° C. for an hour in a 5% CO2 incubator (pigment loading). The peptide was dissolved in dimethylsulfoxide in 1×10^−3 M. The peptide solution was diluted with HANKS/HBSS containing 2.5 mM Probenecid, 0.2% BSA and 0.1% CHAPS.

Specific Activity (intracellular Ca ion level-increasing activity) | Compound
1 | CNC(=N)NCCC[C@H](NC(=O)[C@H](CC(C)C)NC(=O)NNC(=O)[C@H](Cc1ccccc1)NC(=O)[C@@H](NC(=O)[C@H](CC(N)=O)NC(=O)[C@H](Cc1c[nH]c2ccccc12)NC(=O)[C@H](CC(N)=O)NC(=O)[C@H](N)Cc1ccc(O)cc1)[C@@H](C)O)C(=O)N[C@@H](Cc1ccccc1)C(N)=O [Compound No. 297, D-Tyr-Asn-Trp-Asn-Thr-Phe-AzaGly-Leu-Arg(Me)-Phe-NH2] (H-[dY]NWNTF[azaGly]L[Arg(Me)]F-NH2; N-terminus assumed)
2 | 2-Aminoethyl-Gly-D-Tyr-Asn-Trp-Asn-Ser-Phe-Gly-Leu-Arg(Me)-Phe-NH2 [Compound No. 375]
1 | CNC(=N)NCCC[C@H](NC(=O)[C@H](CC(C)C)NC(=O)CNC(=O)[C@H](Cc1ccccc1)NC(=O)[C@H](CO)NC(=O)[C@H](CC(N)=O)NC(=O)[C@@H](Cc1c[nH]c2ccccc12)NC(=O)[C@@H](CC(N)=O)NC(=O)[C@H](N)Cc1ccc(O)cc1)C(=O)N[C@@H](Cc1ccccc1)C(N)=O [Compound No. 231, D-Tyr-D-Asn-D-Trp-Asn-Ser-Phe-Gly-Leu-Arg(Me)-Phe-NH2]
1 | CNC(=N)NCCC[C@H](NC(=O)[C@H](CC(C)C)NCCNC(=O)[C@H](Cc1ccccc1)NC(=O)[C@H](CO)NC(=O)[C@H](CC(N)=O)NC(=O)[C@H](Cc1c[nH]c2ccccc12)NC(=O)[C@H](CC(N)=O)NC(=O)[C@H](N)Cc1ccc(O)cc1)C(=O)N[C@@H](Cc1ccccc1)C(N)=O [Compound No. 307, D-Tyr-Asn-Trp-Asn-Ser-Phe-GlyΨ(CH2NH)Leu-Arg(Me)-Phe-NH2] (H-[dY]NWNSF-X12)

More lines, now with the values behind:

Compound | Specific Activity (intracellular Ca ion level-increasing activity)
CC(C)C[C@H](NC(=O)CNC(=O)[C@H](Cc1ccccc1)NC(=O)[C@H](CO)NC(=O)[C@H](CC(N)=O)NC(=O)[C@H](Cc1c[nH]c2ccccc12)NC(=O)[C@H](CC(N)=O)NC(=O)[C@@H](N)Cc1ccc(O)cc1)C(=O)N[C@@H](CCCNC(=N)N)C(=O)N[C@@H](Cc1ccc(F)c(F)c1)C(N)=O [Compound No. 198] | 10
D-Tyr-Asn-Trp-Asn-Ser-Phe-Ala-Leu-Arg(Me)-Phe-NH2 ([dY]NWNSFAL[Arg(Me)]F-NH2; N-terminus assumed; SMILES CNC(=N)NCCC[C@H](NC(=O)[C@H](CC(C)C)NC(=O)[C@H](C)NC(=O)[C@H](Cc1ccccc1)NC(=O)[C@H](CO)NC(=O)[C@H](CC(N)=O)NC(=O)[C@H](Cc1c[nH]c2ccccc12)NC(=O)[C@H](CC(N)=O)NC(=O)[C@H](N)Cc1ccc(O)cc1)C(=O)N[C@@H](Cc1ccccc1)C(N)=O) [Compound No. 173] | 1
CNC(=N)NCCC[C@H](NC(=O)[C@H](CC(C)C)NC(=O)CNC(=O)[C@H](Cc1ccccc1)NC(=O)[C@H](CO)NC(=O)[C@H](CC(N)=O)NC(=O)[C@H](Cc1c[nH]c2ccccc12)NC(=O)[C@H](CC(N)=O)NC(=O)[C@H](N)Cc1ccc(O)cc1)C(=O)N[C@@H](Cc1c[nH]c2ccccc12)C(N)=O [Compound No. 174] (H-[dY]NWNSFGL[Arg(Me)]W-NH2) | 10
CNC(=N)NCCC[C@H](NC(=O)[C@H](CC(C)C)NC(=O)CNC(=O)[C@H](Cc1ccccc1)NC(=O)[C@@H](NC(=O)[C@H](CC(N)=O)NC(=O)[C@H](Cc1c[nH]c2ccccc12)NC(=O)[C@H](CC(N)=O)NC(=O)[C@H](N)Cc1ccc(O)cc1)[C@@H](C)O)C(=O)N[C@@H](Cc1ccccc1)C(N)=O [Compound No. 211] (H-[dY]NWNTFGL[Arg(Me)]F-NH2; N-terminus assumed) | 10
CNC(=N)NCCC[C@H](NC(=O)[C@H](CC(C)C)NC(=O)NNC(=O)[C@H](Cc1ccccc1)NC(=O)[C@H](CO)NC(=O)[C@H](CC(N)=O)NC(=O)NCCc1c[nH]c2ccccc12)C(=O)N[C@@H](Cc1ccccc1)C(N)=O [Compound No. 279, 2-(indol-3-yl)ethylcarbamoyl-Asn-Ser-Phe-AzaGly-Leu-Arg(Me)-Phe-NH2] ({Tryptamide-CO}-NSF[azaGly]L[Arg(Me)]F-NH2) | 5
